{"source": "paper PMC3265371", "about": "(Nature Communications, 2011)", "molecules": {"B1": {"name": "CNGA1#621–690 (domain or fragment, bovine, UniProt Q00194 621-690, looked up)", "chain": "LEEKVTRMESSVDLLQTRFARILAEYESMQQKLKQRLTKVEKFLKPLIDTEFSAIEGSGTESGPTDSTQD"}, "B2": {"name": "CNGA3#626–694 (domain or fragment, human, UniProt Q16281 626-694, looked up)", "chain": "LEEKVEQLGSSLDTLQTRFARLLAEYNATQMKMKQRLSQLESQVKGGGDKPLADGEVPGDATKTEDKQQ"}}, "key": {"[1]": {"target": "T1, CNGA1 (homomeric channel) (Bos taurus, UniProt Q00194)", "T1 sequence (Q00194 1-690)": "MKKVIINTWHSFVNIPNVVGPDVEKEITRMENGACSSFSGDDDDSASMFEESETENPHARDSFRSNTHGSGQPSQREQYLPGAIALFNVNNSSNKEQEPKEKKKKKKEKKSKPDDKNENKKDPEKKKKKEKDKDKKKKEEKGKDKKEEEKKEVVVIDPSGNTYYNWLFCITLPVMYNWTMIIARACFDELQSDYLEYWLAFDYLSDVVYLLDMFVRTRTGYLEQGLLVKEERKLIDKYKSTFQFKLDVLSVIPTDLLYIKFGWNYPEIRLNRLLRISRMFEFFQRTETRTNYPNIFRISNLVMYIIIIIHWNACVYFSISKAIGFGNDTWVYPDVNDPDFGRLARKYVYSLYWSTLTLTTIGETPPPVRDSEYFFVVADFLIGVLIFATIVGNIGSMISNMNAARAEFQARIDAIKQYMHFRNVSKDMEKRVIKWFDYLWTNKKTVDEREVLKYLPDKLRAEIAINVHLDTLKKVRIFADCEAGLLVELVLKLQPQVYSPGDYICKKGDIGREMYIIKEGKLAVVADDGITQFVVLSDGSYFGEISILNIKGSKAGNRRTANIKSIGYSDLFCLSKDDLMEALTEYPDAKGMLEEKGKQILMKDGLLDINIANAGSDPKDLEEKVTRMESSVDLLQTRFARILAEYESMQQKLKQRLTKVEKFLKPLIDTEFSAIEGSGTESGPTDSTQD", "assay": "inside-out patch clamp, activated current", "assay_type": "biochemical", "conditions": "2.5 mM cGMP, ±60 mV, pH 7.2; activation, saturating"}, "[2]": {"target": "T2, CNGA1-ΔCLZ (homomeric channel) (Bos taurus, UniProt Q00194, DEL609-693)", "T2 sequence (Q00194 1-608)": "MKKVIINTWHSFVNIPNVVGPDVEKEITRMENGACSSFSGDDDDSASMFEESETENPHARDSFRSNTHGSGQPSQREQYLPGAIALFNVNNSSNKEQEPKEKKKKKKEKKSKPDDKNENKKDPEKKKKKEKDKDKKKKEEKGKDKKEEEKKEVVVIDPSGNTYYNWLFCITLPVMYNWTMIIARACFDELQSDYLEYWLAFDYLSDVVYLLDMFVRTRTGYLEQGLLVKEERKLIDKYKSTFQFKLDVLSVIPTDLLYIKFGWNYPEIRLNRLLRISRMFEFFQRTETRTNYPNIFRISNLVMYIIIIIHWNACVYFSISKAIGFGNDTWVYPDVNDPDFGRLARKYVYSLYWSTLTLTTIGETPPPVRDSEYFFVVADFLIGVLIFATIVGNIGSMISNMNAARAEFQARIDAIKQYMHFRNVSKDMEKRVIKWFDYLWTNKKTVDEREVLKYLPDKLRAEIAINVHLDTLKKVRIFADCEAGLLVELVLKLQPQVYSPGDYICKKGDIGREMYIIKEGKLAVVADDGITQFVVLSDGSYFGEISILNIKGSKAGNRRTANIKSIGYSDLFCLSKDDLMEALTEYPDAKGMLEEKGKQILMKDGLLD", "assay": "inside-out patch clamp, block of cGMP-activated current", "assay_type": "cell-based"}, "[3]": {"target": "CNGA1+CNGB1 (heteromeric rod CNG channel) (Bos taurus, UniProt Q00194+Q28181)", "sequence (Q28181 whole entry, one chain of several)": "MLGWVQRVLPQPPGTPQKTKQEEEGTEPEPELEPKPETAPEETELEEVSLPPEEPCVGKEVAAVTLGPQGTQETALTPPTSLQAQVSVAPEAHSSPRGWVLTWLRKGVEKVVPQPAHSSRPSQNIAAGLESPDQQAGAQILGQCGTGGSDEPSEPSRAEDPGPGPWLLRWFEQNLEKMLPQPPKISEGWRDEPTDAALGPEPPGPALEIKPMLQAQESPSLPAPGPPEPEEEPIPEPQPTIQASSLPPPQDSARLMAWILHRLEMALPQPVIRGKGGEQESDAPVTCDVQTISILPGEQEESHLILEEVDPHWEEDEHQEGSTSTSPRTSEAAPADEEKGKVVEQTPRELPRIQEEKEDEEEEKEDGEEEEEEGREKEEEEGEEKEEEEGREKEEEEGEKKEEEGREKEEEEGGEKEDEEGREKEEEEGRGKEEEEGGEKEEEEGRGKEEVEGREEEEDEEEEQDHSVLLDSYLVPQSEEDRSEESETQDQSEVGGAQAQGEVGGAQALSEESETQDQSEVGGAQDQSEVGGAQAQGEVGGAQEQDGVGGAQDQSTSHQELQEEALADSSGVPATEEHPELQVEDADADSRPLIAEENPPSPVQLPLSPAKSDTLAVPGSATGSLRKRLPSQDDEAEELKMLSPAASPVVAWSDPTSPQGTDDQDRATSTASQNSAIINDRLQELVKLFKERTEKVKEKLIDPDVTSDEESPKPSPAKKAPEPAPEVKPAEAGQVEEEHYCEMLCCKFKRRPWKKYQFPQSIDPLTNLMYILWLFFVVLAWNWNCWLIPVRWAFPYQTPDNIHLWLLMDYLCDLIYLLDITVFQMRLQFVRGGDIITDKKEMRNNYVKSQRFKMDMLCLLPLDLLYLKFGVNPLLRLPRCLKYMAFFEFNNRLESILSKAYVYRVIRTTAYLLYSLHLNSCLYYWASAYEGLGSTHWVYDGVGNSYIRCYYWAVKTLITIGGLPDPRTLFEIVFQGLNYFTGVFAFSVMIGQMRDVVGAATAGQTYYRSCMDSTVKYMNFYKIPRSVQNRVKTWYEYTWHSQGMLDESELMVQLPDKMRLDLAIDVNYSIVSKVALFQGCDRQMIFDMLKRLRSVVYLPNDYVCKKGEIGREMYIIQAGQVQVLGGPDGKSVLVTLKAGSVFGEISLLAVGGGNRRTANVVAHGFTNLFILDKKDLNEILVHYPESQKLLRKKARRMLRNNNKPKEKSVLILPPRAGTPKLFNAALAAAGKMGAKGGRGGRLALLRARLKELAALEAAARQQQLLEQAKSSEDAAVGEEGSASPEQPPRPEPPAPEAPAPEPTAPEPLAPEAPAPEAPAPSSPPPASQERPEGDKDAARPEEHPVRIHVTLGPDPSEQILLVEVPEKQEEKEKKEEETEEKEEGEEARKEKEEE", "assay": "inside-out patch clamp, block of cGMP-activated current", "assay_type": "cell-based"}, "CNGA1+CNGB1-ΔN": {"target": "CNGA1+CNGB1-ΔN (Bos taurus, UniProt Q00194+Q28181, DEL2-765)", "sequence (Q28181 766-1394, stated change not applied, one chain of several)": "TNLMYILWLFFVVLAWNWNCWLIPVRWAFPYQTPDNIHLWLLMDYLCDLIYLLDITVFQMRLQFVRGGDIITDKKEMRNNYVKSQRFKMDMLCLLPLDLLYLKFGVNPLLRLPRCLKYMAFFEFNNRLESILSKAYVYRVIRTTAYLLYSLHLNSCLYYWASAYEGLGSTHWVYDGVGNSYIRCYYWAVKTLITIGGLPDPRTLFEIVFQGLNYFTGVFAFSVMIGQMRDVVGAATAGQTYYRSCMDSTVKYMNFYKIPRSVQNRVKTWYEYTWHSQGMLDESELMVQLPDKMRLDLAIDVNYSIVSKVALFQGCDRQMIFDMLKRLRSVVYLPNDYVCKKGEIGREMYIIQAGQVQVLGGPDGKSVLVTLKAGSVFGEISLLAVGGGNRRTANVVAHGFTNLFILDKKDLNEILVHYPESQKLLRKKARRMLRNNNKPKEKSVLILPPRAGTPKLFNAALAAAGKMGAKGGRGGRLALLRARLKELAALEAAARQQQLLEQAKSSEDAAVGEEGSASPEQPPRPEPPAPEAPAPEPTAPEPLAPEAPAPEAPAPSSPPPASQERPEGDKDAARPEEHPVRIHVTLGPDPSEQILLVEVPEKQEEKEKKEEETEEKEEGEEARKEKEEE", "assay": "inside-out patch clamp, block of cGMP-activated current", "assay_type": "cell-based"}, "[4]": {"target": "T1, CNGA1 (homomeric channel)", "assay": "inside-out patch clamp, block of cGMP-activated current", "assay_type": "cell-based"}, "SEC-MALS": {"target": "the molecule itself", "assay": "SEC-MALS"}, "[5]": {"target": "the molecule itself"}}, "note": "Like-named read-outs stand apart in the source and are kept apart here.", "data": [{"molecule": "Nc1nc2c(ncn2[C@@H]2O[C@@H]3COP(=O)(O)O[C@H]3[C@H]2O)c(=O)[nH]1", "note": "[cGMP]", "values": [{"measurement": "inside-out patch clamp, activated current", "setting": "[1]", "result": "Homomeric channels of CNGA1 subunits are efficiently activated by saturating cGMP"}]}, {"molecule": "COc1ccc([C@H]2Sc3ccccc3N(CCN(C)C)C(=O)[C@H]2OC(C)=O)cc1", "note": "[L-cis-diltiazem]", "values": [{"measurement": "IC50", "setting": "[2]", "result": "164 ± 8.2", "unit": "µM"}, {"measurement": "IC50", "setting": "[3]", "result": "2450 ± 280", "unit": "nM"}, {"measurement": "IC50", "setting": "CNGA1+CNGB1-ΔN", "result": "1400 ± 210", "unit": "nM"}, {"measurement": "IC50", "setting": "[4]", "result": "174 ± 7.2", "unit": "µM"}]}, {"molecule": "B1", "values": [{"measurement": "stoichiometry N", "setting": "SEC-MALS", "result": 3}]}, {"molecule": "LEEKVTRMESSVDLLQTRFARILAEYESMQQKLKQRLTKVEKFLKPL (domain or fragment, bovine, UniProt Q00194 621-667, looked up)", "note": "[CNGA1#621–667]", "values": [{"measurement": "stoichiometry N", "setting": "[5]", "result": 3}]}, {"molecule": "B2", "values": [{"measurement": "stoichiometry N", "setting": "SEC-MALS", "result": 3}]}, {"molecule": "LEEKVEQLGSSLDTLQTRFARLLAEYNATQMKMKQRLSQLESQVKGG (domain or fragment, human, UniProt Q16281 626-672, looked up)", "note": "[CNGA3#626–672]", "values": [{"measurement": "stoichiometry N", "setting": "[5]", "result": 3}]}]}
